Converted amounts (≈) assume the structure as drawn. Where two headings read alike, the source gives them in different places.

For assay [1], the system named is G. lamblia WB trophozoite. Description: Giardia viability (ATP content) assay in 96-well format. The format is cell-based, Giardia lamblia. The method, then: Giardia trophozoites were plated at a density of 2500 cells/well in 120 μL media in sterile 96-well black clear-bottom assay plates. Mnz was serially diluted from 100 mM stock solution 1:4 in DMSO and then 0.5 μL/well of Mnz titrations or DMSO control were transferred in duplicates to the assay wells using a multichannel pipette. The assay plates were covered with plastic low-evaporation lids and individually sealed with anaerobic generators (Type A Bio-Bag, BD Diagnostics) to create anaerobic growth environment. The sealed Bio-Bags were incubated at 37° C. for indicated periods. Following incubation, 80 μL/well of the ATPLite reagent (PerkinElmer) was added to the assay plates for one-step lysis and ATP level detection. The plates were centrifuged briefly (1000 RPM, 30 seconds) and incubated at room temperature for 20 min. The luminescent signals of assay plates were measured on a ViewLux plate reader (PerkinElmer). Signal-to-basal (S/B) ratios and Z′ factors were calculated from 8 wells containing 0.42% DMSO (total signal) and 8 wells containing 41.7 μM Mnz (basal signal).
A commercially available ATP detection kit to measure the viability of G. lamblia after compound treatment. […] The DMSO tolerance of trophozoites was assessed in this assay as DMSO is used to dissolve the compounds in the library. […]

Another assay has as its system Giardia WB. The assay is described as follows: Giardia viability (ATP content) assay in 1536-well format. The format is cell-based, Giardia lamblia. The following applies: Giardia, 1536-well (FIG. 2a), read-out: Calculated EC50. The method, then:
(§1) For the viability assay in 1536-well format, 2 μL media was dispensed per well into 1536-well white solid-bottom plates using a Multidrop Combi dispenser (Thermo Scientific). Subsequently, 23 nL/well compound solutions or DMSO controls were dispensed to the assay plates containing media via a pintool workstation (Kalypsys, San Diego). Trophozoites were chilled on ice to detach from glass tubes, and unless otherwise noted, were diluted to 250,000 trophozoites/mL with ice cold media. The trophozoite suspension was kept on ice and dispensed as 4 μL/well with the Multidrop Combi dispenser. Attachment of trophozoites to dispensing apparatus was avoided with continuous dispensing and icing of the trophozoite suspension. The plates were covered with plastic low-evaporation lids, individually sealed in Type A Bio-Bags and incubated at 37° C. for 48 hours. Following incubation, 4 μL/well of ATPLite reagent was dispensed with the Multidrop Combi dispenser. The assay plates were briefly centrifuged at 1000 RPM and luminescence signal was detected on a ViewLux plate reader (PerkinElmer) after 20 min incubation at room temperature. Signal-to-basal (S/B) ratio, Z′ factor and coefficient of variation (CV) were calculated from 32 wells with 0.38% DMSO (total signal) and 32 well with 38.3 μM Mnz (basal signal).
Assay miniaturization in 1,536-well plate format was undertaken to increase throughput and facilitate screening of large compound libraries. The volume of trophozoites suspension was reduced to 6 μL/well and the ATP detection reagent was reduced to 4 μL/well in the 1536-well assay plates. […] The 100 trophozoites/well density was selected for further experiments to reduce the preparation work of Giardia cultures. Following these conditions, a DMSO test plate was used to assess the statistical parameters of the assay in the 1,536-well plate format.
Using the above established conditions in 1536-well format, each compound of the invention was tested at 5 concentration points, ranging from 61 nM-38.3 μM in a 1:5 dilution ratio (Inglese, J., D. S. Auld, A. Jadhav, R. L. Johnson, A. Simeonov, A. Yasgar, W. Zheng, and C. P. Austin. 2006. Quantitative high-throughput screening: a titration-based approach that efficiently identifies biological activities in large chemical libraries. Proc Natl Acad Sci USA 103:11473-8).

Assay [2] concerns Giardia lamblia GS isolate. Description: Trophozoite enumeration assay. The format is cell-based. The following applies: Giardia duodenalis; G. lamblia GS isolate; 48 hrs, cell counting in hemocytometer. The method, then:
Giardia lamblia GS isolate was plated into sterile 96-well black clear-bottom assay plates at 10,000 cells/well density and 120 μL/well volume in culture media. Compounds tested were prepared as 50 mM DMSO solutions in a 12 point 1:3 titration series in DMSO, with exceptions being carbadox, Bortezomib and BTO-1, which were used at 10 mM top concentration due to solubility limitations. Compound titration series were added to duplicate assay wells as 0.5 μL/well and the assay plates were incubated anaerobically in Type A Bio-Bag (BD Diagnostics) for 48 hrs at 37° C. Cell density was visually scored in each well and the 6 wells surrounding the visually determined IC50 concentrations were quantitated by cell counting. For enumeration, trophozoites were detached on ice for 30 min and resuspended via pipetting. 75 μL of culture was removed from each well, mixed with 65 μL of 0.4% Trypan Blue and 10 μL of 30% bleach (final concentration of 2% bleach) to immobilize trophozoites. Trophozoites were then counted in a hemocytometer.

The test system of assay [3] is Giardia lamblia GS isolate. Description: Minimum Lethal Concentration (MLC) determination. The format is cell-based. The note with it: Giardia duodenalis, 72 h; 3 days with compound, then 3 days regrowth without compound; tube without any live organisms. As for the experimental part:
Giardia lamblia GS isolate was used throughout the Minimal Lethal Concentration (MLC) experiments. Organisms were grown and maintained in TYI-S-33 medium supplemented with bile and antibiotics (Keister, 1983). Cidal activity was determined in 96-well culture plates (Corning Incorporated) followed by Giardia trophozoites regrowth in 8 ml tubes (Fisher Scientific). Dry compounds were dissolved in DMSO (Sigma) at stock concentration of 10 mM and then added to the growth media to ensure final DMSO concentration of no more than 0.5%. 100 μl of the compound solutions were placed in the wells by serial dilutions. 10 μl of Giardia trophozoites containing 10000 organisms were then added. Serial dilutions of metronidazole served as the positive control and the DMSO-containing medium served as the negative control. Plates were incubated under anaerobic conditions in sealed bags (Becton Dickinson and Company) at 37° C. for 3 days and surveyed visually under microscope to check survival, mobility and attachment of trophozoites. The plate was chilled on ice for 30 min and the entire contents of 4 wells in the growth/death transition were transferred into the 8 ml tubes containing growth media only (without the compound). After 3 days of incubation at 37° C., tubes were checked under microscope for any surviving trophozoites. MLC was attributed to the tube without any live organisms. See, e.g., Keister, D. B. 1983. Axenic culture of Giardia lamblia in TYI-S-33 medium supplemented with bile. Trans. Soc. Trop. Med. Hyg. 77:487-488.

The subject of the next assay is G. lamblia GS isolate. Description: ATP content assay against G. lamblia GS isolate. The format is cell-based, Giardia lamblia. The note with it: G. lamblia GS isolate, purchased powder samples. The method, then:
as §1
As a further confirmatory step, some compounds that were commercially available were purchased as powder samples and tested against the G. lamblia GS isolate using both the ATP content and enumeration assays (Table 3).

Usually IC50 stands for the concentration that inhibits the measured activity by half. Broadly, the EC50 is the concentration giving half of the maximal effect. As a reminder, the MBC is the smallest concentration meeting the test's criterion for killing. With `Cc1ncc([N+](=O)[O-])n1CCO` [Metronidazole], the “ATP content relative to DMSO control values” in assay [1] (41.7 μM Mnz treatment, all time points tested (FIG. 1a)) is reported as < 5%. The IC50 in assay [1] (Giardia duodenalis, 96-well format, 48 hr (FIG. 1c), read-out: IC50 of inhibition of the ATP content signal) was found to be 2100 nM; in assay [2] it was 2200 nM; in the assay with G. lamblia GS isolate (Giardia duodenalis, read-out: ATP Content IC50), 1600 nM. Further, the values for the half-maximal effective concentration (EC50) with Giardia WB (100 cells/well Giardia density), with Giardia WB (200 cells/well Giardia density) and in the assay on Giardia WB (300 cells/well Giardia density) were 2900 nM, 2900 nM and 2100 nM, respectively. In assay [3], the MBC turned out to be 7.7 µM (≈ 1.32 µg/mL). The “ATP Content Efficacy” value in the assay on G. lamblia GS isolate was determined as 99.7%.

The values are drawn from patent US9173898B2, “Methods of treating giardiasis” (THE UNITED STATES OF AMERICA, as represented by the …, priority 2010, dated 2015).
